In data set [1] the test system is HCT-8. Description: Cytotoxicity against human HCT8 cells after 72 hrs by MTT assay. The data set is classed as functional, cell-based. The note with it: HCT-8, 72 h. On the technique in general: Tetrazolium dyes change colour on reduction, which living cells bring about.
Data set [2] concerns BGC-823. Briefly: Cytotoxicity against human BGC823 cells after 72 hrs by MTT assay. The data set is classed as functional, cell-based. The note with it: BGC-823, 72 h.
The subject of data set [3] is A549. Briefly: Cytotoxicity against human A549 cells after 72 hrs by MTT assay. The class given is functional, cell-based. The note with it: A549, 72 h.
The nature of data set [4]: Cytotoxicity against human embryo lung fibroblast after 72 hrs by MTT assay. The class given is cell-based.
Data set [5] relates to KB. Briefly: Cytotoxicity against human KB cells after 72 hrs by MTT assay. The data set is classed as functional, cell-based.
The nature of data set [6]: Selectivity ratio of IC50 for human embryo lung fibroblast to IC50 for human KB cells. The class given is ADME, cell-based. To be noted: human embryo lung fibroblasts and KB cells.

Values after ≈ are worked out from the molar mass of the structure shown.

For `CCCCOC(=O)[C@H]1O[C@@H](O[C@H]2CC[C@@]3(C)C(CC[C@]4(C)[C@@H]3CC=C3[C@@H]5CC(C)(C)[C@@H](OC(=O)/C=C(\C)CCC=C(C)C)[C@H](OC(=O)C(C)CC)[C@]5(CO)[C@H](O)[C@H](O)[C@]34C)C2(C)C)[C@H](O[C@@H]2O[C@H](CO)[C@@H](O)[C@H](O)[C@H]2O)[C@@H](O)[C@@H]1O[C@@H]1O[C@@H](CO)[C@H](O)[C@H]1O` (some centres not stated), the IC50 (commonly the midpoint of a concentration-inhibition curve) in data set [1] was 2.86 µg/mL (≈ 2.26 µM); in data set [2], 7.29 µg/mL (≈ 5.75 µM).

In the case of `COC(=O)[C@H]1O[C@@H](O[C@H]2CC[C@@]3(C)C(CC[C@]4(C)[C@@H]3CC=C3[C@@H]5CC(C)(C)[C@@H](O)[C@H](O)[C@]5(CO)[C@H](O)[C@H](O)[C@]34C)C2(C)C)[C@H](O[C@@H]2O[C@H](CO)[C@@H](O)[C@H](O)[C@H]2O)[C@@H](O)[C@@H]1O[C@@H]1O[C@@H](CO)[C@H](O)[C@H]1O` (some centres not stated), the half-inhibitory concentration (IC50) in data set [3] was 0.66 µg/mL (≈ 0.666 µM); in data set [4] it was > 10 µg/mL; in data set [5] it was 0.3 µg/mL (≈ 0.303 µM); in data set [1], 6.8 µg/mL (≈ 6.86 µM). Further, the selectivity ratio in data set [6] was > 33.

The molecule `CCCCOC(=O)[C@H]1O[C@@H](O[C@H]2CC[C@@]3(C)C(CC[C@]4(C)[C@@H]3CC=C3[C@@H]5CC(C)(C)C[C@H](OC(=O)/C=C(\C)CCC=C(C)C)[C@]5(CO)[C@H](O)[C@H](O)[C@]34C)C2(C)C)[C@H](O[C@@H]2O[C@H](CO)[C@@H](O)[C@H](O)[C@H]2O)[C@@H](O)[C@@H]1O[C@@H]1O[C@@H](CO)[C@H](O)[C@H]1O` (some centres not stated) had an IC50 in data set [1] of 4.04 µg/mL (≈ 3.46 µM).

Turning to `CCC(C)C(=O)O[C@H]1[C@H](OC(=O)/C=C(\C)CCC=C(C)C)C(C)(C)C[C@H]2C3=CC[C@@H]4[C@@]5(C)CC[C@H](O[C@@H]6O[C@H](C(=O)OC)[C@@H](O[C@@H]7O[C@@H](CO)[C@H](O)[C@H]7O)[C@H](O)[C@H]6O[C@@H]6O[C@H](CO)[C@@H](O)[C@H](O)[C@H]6O)C(C)(C)C5CC[C@@]4(C)[C@]3(C)[C@@H](O)[C@@H](O)[C@]21CO` (some centres not stated) [SYMPLOCOSOSIDE A], the IC50 in data set [3] worked out at 0.67 µg/mL (≈ 0.547 µM); in data set [4], 4.62 µg/mL (≈ 3.77 µM); in data set [5], 1.72 µg/mL (≈ 1.4 µM); in data set [1] it was 4.31 µg/mL (≈ 3.52 µM).
